This note sets out measurements from ChEMBL document CHEMBL1122120, “Brain levels and metabolism of the dopaminergic agonist 2-amino-6,7-dihydroxytetrahydronaphthalene after administration of various prodrugs” (J Med Chem, 1982).

The nature of series [1]: Tested for the stability in water after 24h, activity expressed as percentage hydrolysis. Type of series: physicochemical. Particulars: read-out: Hydrolysis.
Series [2] can be described thus: Tested for the stability in water after 6h, activity expressed as percentage hydrolysis. Format: physicochemical. Particulars: read-out: Hydrolysis.

Take `CC(C)C(=O)Oc1cc2c(cc1OC(=O)C(C)C)CC(N)CC2` (stereo not drawn): in series [1], the degraded at 24 h was determined as 0.23%. Further, in series [2], the degraded at 6 h was 0.06%.
The matching figures for `CC(=O)Oc1cc2c(cc1OC(C)=O)CC(N)CC2` (stereo not drawn): 3.74% and 1.64%.
For the molecule `CC(C)(C)C(=O)Oc1cc2c(cc1OC(=O)C(C)(C)C)CC(N)CC2` (stereo not drawn), in series [1], the degraded at 24 h was found to be 0.02%. Further, in series [2], the degraded at 6 h is 0.01%.
For `NC1CCc2cc(OC(=O)c3ccccc3)c(OC(=O)c3ccccc3)cc2C1` (stereo not drawn), in that order: 0.06% and 0.03%.
